Experimental data taken from patent publication US20240058332A1, “CRAC CHANNEL INHIBITOR COMPOSITIONS” (CalciMedica, Inc., priority 2017, published 2024).
Values after ≈ are worked out from the molar mass of the structure shown.

Key:
Assay type in all cases: physicochemical
[1] = Solubility of Compound A in F57, Method 4: top-down method; conditions: for concentration in F57 vehicle: Method 4 top-down, 2-8° C.; for strength dissolved into F57 vehicle: top-down approach; for concentration on storage: top-down, after 4 weeks' storage at 2-8° C.
Method: (§1) For solubility determination, a F57 sample (usually about 0.5 mL) was filtered through a 0.22 μm centrifuge filter (Costar Spin-X®+, P/N8169), the filtrate (free of any solid particle) was collected, diluted with isopropanol, and tested for Compound A concentration using the following HPLC method. Dissolution-precipitation equilibrium is reached once the measured filtrate concentration is constant, and that concentration can be regarded as the solubility.
The top-down method used high-energy homogenization to dissolve a set amount of Compound A (Form A) in the F57 vehicle to achieve supersaturation, allowing precipitation to take place over time to reach a dissolution-precipitation equilibrium in F57. The solubility of Compound A in the F57 vehicle was then determined.
(§2) The bottom-up method used a gentle mixing to slowly dissolve Compound A (Form A) in the F57 vehicle to reach the dissolution-precipitation equilibrium in F57. The solubility of Compound A in the F57 vehicle was then determined. • Top-down method: Add form A and B API, each into a separate tube containing the F57 vehicle, then apply extensive energy to each tube by homogenizer (BB, 600 sec) to obtain a clear solution, and store each tube at 2-8° C. • Bottom-up method: Add form A and B API, each into a separate tube containing the F57 vehicle, then gently shake each tube on a platform shaker at 2-8° C. • Pull sample aliquots at 1 day, 2 days, 1 week and 4 weeks to test for appearance and concentration.

[2] = Solubility of Compound A in F57, Method 4: bottom-up method; conditions: 2-8° C.; for concentration in F57 vehicle: Method 4 bottom-up
Method: as §1, §2

[3] = as above; conditions: for concentration in F57 vehicle: Method 4 bottom-up
[4] = DVS isotherm (hygroscopicity) of Form A
Excerpt: The crystal size of Form A is in the range of ˜few μm to about 50 μm.

[5] = Solubility estimation of freebase Form A in 20 solvents at RT
Method: The solubility of N-(5-(6-chloro-2,2-difluorobenzo[d][1,3]dioxol-5-yl)pyrazin-2-yl)-2-fluoro-6-methylbenzamide freebase Form A was determined in 20 solvents at RT. These experiments were conducted by adding approximately 2 mg of sample into a 3-mL glass vial. Solvents in Table 14 were then added in 50 μL increments into the vials until the solids were dissolved or a total volume of 2 mL was reached. The solubility estimation was used to guide the solvent selection in polymorph screening. N-(5-(6-chloro-2,2-difluorobenzo[d][1,3]dioxol-5-yl)pyrazin-2-yl)-2-fluoro-6-methylbenzamide freebase Form A is soluble in MeOH, Acetic acid, Acetonitrile, Acetone, MIBK, EtOAc, IPAc, MTBE, THF, 2-MeTHF, 1,4-Dioxane, NMP, DMSO, DCM, Toluene and DMAc (>18.0 mg/mL), while it is insoluble in Heptane and H2O (<1.3 mg/mL).

[6] = Solubility of Compound A in F57, summary of all 7 methods; conditions: F57 emulsion, 2 °C, thermodynamic from solid, 2-8° C., all methods; read-out: solubility in F57
Excerpt: The term “solubility” used herein is defined as Compound A concentration where Compound A has reached a dissolution-precipitation equilibrium in F57 at a selected temperature. […] On the other hand, if Compound A concentration is higher than the solubility, Compound A is expected to precipitate over time.
To investigate the causes of precipitation and determine the Compound A solubility in F57 vehicle, the following seven (7) methods were applied to accurately determine solubility of Compound A in F57: • Method 1: Formulate Compound A in F57 at varied concentrations using GMP grade of Compound A and excipients with the regular process • Method 2: Formulate Compound A in F57 by introducing Compound A into a pre-formed F57 vehicle • Method 3: Observe Compound A in the previously made batches which already had extended incubation • Method 4: Conduct “top-down” and a “bottom-up” solubility studies in F57 vehicle • Method 5: Agitate Compound A GMP batch of F57 to promote the dissolution-precipitation equilibrium • Method 6: Add extra Form B seeds to Compound A GMP batch of F57 to promote Compound A crystal growth and precipitation • Method 7: Add Form B seeds to the samples made in method 1 to promote Compound A crystal growth and precipitation
as §1
Table 40 summarizes the general conditions used in the seven methods to promote the dissolution-precipitation equilibrium. Detailed procedures are described in each method section.
The general observation and findings by all 7 methods are summarized in the table 50, according to the detailed observation and discussion pertaining to each method.

In the case of `Cc1cccc(F)c1C(=O)Nc1cnc(-c2cc3c(cc2Cl)OC(F)(F)O3)cn1` [Form B, N-(5-(6-chloro-2,2-difluorobenzo[d][1,3]dioxol-5-yl)pyrazin-2-yl)-2-fluoro-6-methylbenzamide], the “concentration in F57 vehicle” value ([1]; 1 wk) is reported as 2.97 mg/mL, the “concentration in F57 vehicle” value ([1]; 4 wk) is reported as 2.97 mg/mL and the “concentration in F57 vehicle” value ([1]; 1 day) is reported as 3.00 mg/mL. The “concentration in F57 vehicle” value ([1]; 2 day) was 2.94 mg/mL, the “strength dissolved into F57 vehicle” value [1] was 3.00 mg/mL and the concentration on storage [1] was “remained the same”. For the same compound, the “concentration in F57 vehicle” value ([2]; 1 wk) was 1.63 mg/mL, the “concentration in F57 vehicle” value ([2]; 4 wk) was 1.66 mg/mL and the “concentration in F57 vehicle” value ([2]; 1 day) was 0.75 mg/mL. The “concentration in F57 vehicle” value ([2]; 2 day) was 1.14 mg/mL, the “concentration in F57 vehicle” value ([3]; 2-8° C., 7 wk) was 1.80 mg/mL and the “concentration in F57 vehicle” value ([3]; 25° C., 1 wk) was 2.15 mg/mL. The “concentration in F57 vehicle” value ([3]; 25° C., 4 wk) was 2.04 mg/mL, the “concentration in F57 vehicle” value ([3]; 25° C., 1 day) was 1.30 mg/mL and the “concentration in F57 vehicle” value ([3]; 25° C., 2 day) was 1.73 mg/mL. The solubility ([3]; bottom-up, F57 vehicle, 2-8° C., in 7 weeks) was 1.8 mg/mL (≈ 4.27 mM).

For `Cc1cccc(F)c1C(=O)Nc1cnc(-c2cc3c(cc2Cl)OC(F)(F)O3)cn1` [Form A, N-(5-(6-chloro-2,2-difluorobenzo[d][1,3]dioxol-5-yl)pyrazin-2-yl)-2-fluoro-6-methylbenzamide], the hygroscopicity ([4]; DVS isotherm plot) was “not hygroscopic”, the water uptake level ([4]; DVS isotherm, at 80% RH) was less than 0.03% and the solubility ([5]; organic solvent or mixture, thermodynamic from solid, 1,4-Dioxane, read-out: Solubility) was greater than 24 mg/mL. The solubility ([5]; organic solvent or mixture, thermodynamic from solid, 2-MeTHF, read-out: Solubility) was greater than 26 mg/mL, the solubility ([5]; organic solvent or mixture, thermodynamic from solid, Acetic acid, read-out: Solubility) was greater than 22 mg/mL and the solubility ([5]; organic solvent or mixture, thermodynamic from solid, Acetone, read-out: Solubility) was greater than 22 mg/mL. For the same compound, the solubility ([5]; organic solvent or mixture, thermodynamic from solid, Acetonitrile, read-out: Solubility) was greater than 22 mg/mL, the solubility ([5]; organic solvent or mixture, thermodynamic from solid, DCM, read-out: Solubility) was greater than 22 mg/mL and the solubility ([5]; organic solvent or mixture, thermodynamic from solid, DMAc, read-out: Solubility) was greater than 22 mg/mL. For the same compound, the solubility ([5]; organic solvent or mixture, thermodynamic from solid, DMSO, read-out: Solubility) was greater than 20 mg/mL, the solubility ([5]; organic solvent or mixture, thermodynamic from solid, EtOAc, read-out: Solubility) was greater than 22 mg/mL and the solubility ([5]; organic solvent or mixture, thermodynamic from solid, Heptane, read-out: Solubility) was less than 1.3 mg/mL. For the same compound, the solubility ([5]; organic solvent or mixture, thermodynamic from solid, IPAc, read-out: Solubility) was greater than 24 mg/mL, the solubility ([5]; organic solvent or mixture, thermodynamic from solid, MIBK, read-out: Solubility) was greater than 22 mg/mL and the solubility ([5]; organic solvent or mixture, thermodynamic from solid, MTBE, read-out: Solubility) was greater than 18 mg/mL. The solubility ([5]; organic solvent or mixture, thermodynamic from solid, MeOH, read-out: Solubility) was greater than 18 mg/mL, the solubility ([5]; organic solvent or mixture, thermodynamic from solid, NMP, read-out: Solubility) was greater than 26 mg/mL and the solubility ([5]; organic solvent or mixture, thermodynamic from solid, THF, read-out: Solubility) was greater than 20 mg/mL. For the same compound, the solubility ([5]; organic solvent or mixture, thermodynamic from solid, Toluene, read-out: Solubility) was greater than 22 mg/mL, the solubility ([5]; organic solvent or mixture, thermodynamic from solid, in Heptane and H2O, read-out: solubility (insoluble)) was less than 1.3 mg/mL and the solubility ([5]; organic solvent or mixture, thermodynamic from solid, in MeOH, Acetic acid, Acetonitrile, Acetone, MIBK, EtOAc, IPAc, MTBE, THF, 2-MeTHF, 1,4-Dioxane, NMP, DMSO, DCM, Toluene and DMAc, read-out: solubility (soluble)) was greater than 18 mg/mL. For the same compound, the solubility ([5]; water, thermodynamic from solid, H2O, read-out: Solubility) was less than 1 mg/mL, the “concentration in F57 vehicle” value ([1]; 1 wk) was 2.68 mg/mL and the “concentration in F57 vehicle” value ([1]; 4 wk) was 2.64 mg/mL. For the same compound, the “concentration in F57 vehicle” value ([1]; 1 day) was 2.69 mg/mL, the “concentration in F57 vehicle” value ([1]; 2 day) was 2.65 mg/mL and the “strength dissolved into F57 vehicle” value [1] was 2.69 mg/mL. For the same compound, the concentration on storage [1] was “remained the same”, the “concentration in F57 vehicle” value ([2]; 1 wk) was 1.70 mg/mL and the “concentration in F57 vehicle” value ([2]; 4 wk) was 1.71 mg/mL. The “concentration in F57 vehicle” value ([2]; 1 day) was 1.20 mg/mL, the “concentration in F57 vehicle” value ([2]; 2 day) was 1.53 mg/mL and the dissolution rate ([2]; bottom-up, emulsion vehicle) was “faster dissolution rate”. For the same compound, the solubility [6] was 1800 to 1900 µg/mL (≈ 4.27 to 4.5 mM), the solubility at 7 weeks ([3]; F57 emulsion vehicle, thermodynamic from solid, bottom-up, F57 vehicle, 2-8° C., in 7 weeks) was 1800 µg/mL (≈ 4.27 mM) and the “concentration in F57 vehicle” value ([3]; 2-8° C., 7 wk) was 1.85 mg/mL. For the same compound, the “concentration in F57 vehicle” value ([3]; 25° C., 1 wk) was 2.19 mg/mL, the “concentration in F57 vehicle” value ([3]; 25° C., 4 wk) was 2.17 mg/mL and the “concentration in F57 vehicle” value ([3]; 25° C., 1 day) was 2.18 mg/mL. The “concentration in F57 vehicle” value ([3]; 25° C., 2 day) was 2.24 mg/mL.
